Reference: patent publication US12642809B2, “Fucosylation and immune modulation in cancer” (H. LEE MOFFITT CANCER CENTER AND RESEARCH INSTITUTE, INC., priority 2019, dated 2026)
“Also recorded” adds a separate entry of the source.

Experiments:
[1] = test system: SW1 tumors; test: H2K1/EB1 knockdown and EB1 fucomutant reconstitution SW1 tumor model; type: in vivo, mouse; conditions: for L-fuc-triggered tumor suppression: EB1 (IEβ) knockdown tumors (shEB1, shEB1+EV)
Procedure: Single-cell suspensions from tumor and spleen tissue were stained with Live/Dead Zombie NIR (Biolegend, (San Diego, CA)) at 1:1,000 in PBS for 20 min. Cell suspensions were spun down and stained with the following antibodies: APC anti-mouse CD3 (0.5 μg/mL, BD Biosciences (San Jose, CA)), Pacific Blue anti-mouse CD4 ([…], BD Biosciences (San Jose, CA)), BV785 anti-mouse CD8 (0.5 μg/mL, BD Biosciences (San Jose, CA)), PerCP anti-mouse CD25 ([…], BD Biosciences (San Jose, CA)), FITC anti-mouse F4/80 (0.5 μg/mL, BD Biosciences (San Jose, CA)), PeCy7 anti-mouse CD11c (0.5 μg/mL, BD Biosciences (San Jose, CA)), PE anti-mouse NK1.1 (0.5 μg/mL, BD Biosciences (San Jose, CA)), PE anti-mouse DX5 (0.5 μg/mL, BD Biosciences (San Jose, CA)), PerCP-Cy5.5 anti-mouse CD11b (0.5 μg/mL, BD Biosciences (San Jose, CA)). After staining, the cells were washed and fixed (2% formaldehyde), followed by another wash and flow cytometric analysis. The compensation controls were prepared using 0.5 μg/ml. of each antibody with beads UltraComp eBeads™, (ThermoFisher Scientific (Waltham, MA)). All samples were subject to flow cytometric analysis using a LSR Flow Cytometer (BD Biosciences (San Jose, CA)). Flow cytometric data was further analyzed using FlowJo™ analysis software (BD Biosciences (San Jose, CA)). TIL profiles were determined as a measure of TIL subpopulations per gram of tumor tissues or % of total splenocytes.
SW1 mouse melanoma cells expressing either shNT (non-targeting shRNA), shH2K1, shEB1, shNT+EV, shEB1+EV, shEB1+EB1 WT, or shEB1+EB1 N46G were injected into syngeneic C3H/HeN female mice. After approximately 7 days, when the mice tumors reached ˜150 mm^3, the mice were either supplemented with or without 100 mM L-fucose (Biosynth (Oak Terrace, IL)) via drinking water, which was provided ad libitum. When the tumors reached ˜2 cm^3, the animals were sacrificed, and the tumors were either processed for flow cytometric profiling or for histological analysis as indicated

[2] = test system: PD-L1; test: Flow cytometry of cell surface PD-L1 in melanoma cells; type: cell-based, human or mouse; conditions: 250 μM; WM793, SW1, SM1 cells
From the text: FIGS. 22A, 22B, 22C, 22D, 22E, and 22F show reduced cell surface class II MHC during anti-PD-1 failure; L-PLA schematic and the effects of L-fucose on tumoral PD-L1 expression and peripheral human CD4^+ T cell fucosylation and IFNγ production/secretion. […] We stained for (i) HLA-DRB1 using anti-HLA-DRB1 followed by (+) oligo-conjugated PLA secondary and (ii) fucosylated glycan using biotinylated (“B”) AAL lectin followed by anti-biotin followed by (−) oligo-conjugated PLA secondary. Ligated PLA oligos were subjected to rolling circle amplification PCR (RCA PCR), giving rise to fluorescent punctae. […] Healthy human donor peripheral CD4^+ T cells were treated with DMSO (D) and 250 μM FUTi (i) or L-fuc (L-f) and subjected to (22E) IB analysis for changes in fucosylation (AAL IB) or (22F) ELISA assay to measure changes in IFNγ production/secretion. *=p-value<0.05.
Indicated cells were treated for 72 h with DMSO, 250 μM fucosyltransferase inhibitor (FUTi) (Millipore Sigma (St. Louis, MO)), or 250 μM of L-fucose (Biosynth (Oak Terrace, IL)). After 72 h, cells were stained with 0.1 μM PKH26 (Millipore Sigma (St. Louis, MO)) prior to fixation in 4% formaldehyde solution. […]

[3] = test system: Leukocyte Adhesion Deficiency II; conditions: L-fuc supplementation; cited from earlier work
[4] = test system: human CD4+ T cells; test: CD3/CD28 human CD4+ T cell activation assay / IFNγ ELISA; type: cell-based
Procedure: Human CD4^+ T cells were isolated from fresh PBMC using a CD4^+ T cell negative selection isolation kit (Stem Cell Technologies, (Vancouver CA)) according to manufacturer's protocols. CD4^+ T cells were cultured in the presence of DMSO, 250 μM FUTi (Millapore Sigma (St. Louis, MO)), or 250 μM L-fucose 3 days prior to activation. After 3 days, the CD4^+ T cells were activated using anti-CD3/CD28 Dynabeads (ThermoFisher Scientific (Waltham, MA)) in a 1:1 bead: CD4^+ T cell ratio. After 24 h, supernatants were collected and IFNγ ELISA was performed according to manufacturer's protocols (Biolegend (San Diego, CA)).

## C[C@H](O)[C@@H](O)[C@@H](O)[C@H](O)C=O [L-fucose]
[1]
  L-fuc-triggered tumor suppression: abrogates
[1]; listed as L-fuc
  L-fuc-triggered tumor suppression: completely abrogated
[1]; control knockdown (shNT / shNT+EV) tumors
  reduced tumor growth: ~60%
[1]; shEB1+N46G tumors
  tumor suppression: did not suppress
[1]; shEB1+WT tumors
  reduced tumor growth: > 60%
[1]; shEB1 tumors
  L-fuc-triggered induction of total TIL counts and subpopulations: reduced; also recorded: abrogated
[1]; shEB1 tumors reconstituted with EB1 WT
  TIL induction by L-fuc: restored
[1]; shEB1 tumors reconstituted with EV or EB1 N46G
  TIL induction by L-fuc: did not
[2]
  cell surface PD-L1: did not find that modulating fucosylation alters
[3]
  co-morbidities: without significant co-morbidities
  symptoms of the disorder: can be mitigated
[4]; 250 μM, 3 days before CD3/CD28 activation
  increase of CD4+ T cell activation (IFNγ production): ~37%
[4]; FIG. 13
  IFN-γ production relative to DMSO treated controls: increase
